{
  "source": "patent US20250027085A1",
  "about": "“COMPOSITIONS AND METHODS FOR TREATING ALZHEIMER'S DISEASE UTILIZING A TRANSCRIPTIONAL MASTER REGULATOR OF THE RETROMER COMPLEX” (THE TRUSTEES OF COLUMBIA UNIVERSITY IN THE CITY OF NEW YORK, priority 2022, published 2025)",
  "key": {"rat hippocampal neurons": {"test_system": "rat hippocampal neurons", "test": "Cell death assay (TUNEL) after axonal Aβ1-42/Aβ42 treatment in microfluidic chambers", "format": "cell-based", "settings": "Aβ oligomers 36 hours, nelfinavir in the last 24 hours, 10/15 μM nelfinavir", "description": "(§1) Hippocampi were dissected from embryonic day (E) 16-18 rat embryos obtained from pregnant Sprague-Dawley dams (Envigo). All animal procedures were approved by the Institutional Animal Care and Use Committee at Columbia University. Cell dissociation was performed using TripLE Express. Neurons (50,000-60,000 per microfluidic chamber) were plated on 0.1 mg ml^-1 poly-D-lysine (Millipore Sigma) and 2 μg ml^-1 laminin (Bio-Techne) coated substrates and grown in Neurobasal supplemented with 10% fetal bovine serum, 2 mM L-glutamine, 1 mM sodium pyruvate, and antibiotics (50 U ml^-1 penicillin-streptomycin). Tripartite microfluidic chambers were produced with Dow Corning Sylgard 184 Silicone Encapsulant Clear Kit (10:1 mix ratio; Ellsworth Adhesives) cured at […] for at least 4 hours following published protocols (Park et al. 2006; Desai et al. 2009). Chamber design incorporated two sets of 200-μm-long microgroove barriers to exclude crossing of cell bodies and dendrites (Taylor et al. 2005; […] et al. 2009). After 24 hours, medium was changed to Neurobasal containing 1×B27 and 2 mM L-glutamine. Subsequent medium changes (half volumes) were performed at DIV4 and thereafter every 3-5 days. To prevent glial cell proliferation, medium changes included 5-flurodeoxyuridine and uridine (final concentration […]; Millipore Sigma) after DIV4. […]"}, "[1]": {"test_system": "CREB3L2-ATF4 heterodimers", "test": "Proximity ligation assay (PLA) of axonal CREB3L2-ATF4 heterodimers", "format": "cell-based, rat", "settings": "axons treated with Aβ oligomers for 36 hours plus nelfinavir", "description": "as §1"}},
  "data": [
    {"smiles": "Cc1c(O)cccc1C(=O)N[C@@H](CSc1ccccc1)[C@H](O)CN1C[C@H]2CCCC[C@H]2C[C@H]1C(=O)NC(C)(C)C", "note": "[nelfinavir]", "values": [
      {"measurement": "retrograde degeneration response (TUNEL) triggered by local Aβ1-42/Aβ42 stimuli", "setting": "rat hippocampal neurons", "value": "completely rescued"},
      {"measurement": "CREB3L2-ATF4 complexes/heterodimers in axons (PLA)", "setting": "[1]", "value": "caused the accumulation"}
    ]}
  ]
}
